Measurements published in ChEMBL document CHEMBL1201862, “PubChem BioAssay data set” (2004).
The source made the active and inactive calls.

What was measured:
Format in all cases: functional
[1] = biological target: T1, 3-phosphoinositide-dependent protein kinase 1 (Homo sapiens, UniProt O15530);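 note: value comes from the Navigating the Kinome panel, PDPK1 member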
T1 sequence (O15530 whole entry): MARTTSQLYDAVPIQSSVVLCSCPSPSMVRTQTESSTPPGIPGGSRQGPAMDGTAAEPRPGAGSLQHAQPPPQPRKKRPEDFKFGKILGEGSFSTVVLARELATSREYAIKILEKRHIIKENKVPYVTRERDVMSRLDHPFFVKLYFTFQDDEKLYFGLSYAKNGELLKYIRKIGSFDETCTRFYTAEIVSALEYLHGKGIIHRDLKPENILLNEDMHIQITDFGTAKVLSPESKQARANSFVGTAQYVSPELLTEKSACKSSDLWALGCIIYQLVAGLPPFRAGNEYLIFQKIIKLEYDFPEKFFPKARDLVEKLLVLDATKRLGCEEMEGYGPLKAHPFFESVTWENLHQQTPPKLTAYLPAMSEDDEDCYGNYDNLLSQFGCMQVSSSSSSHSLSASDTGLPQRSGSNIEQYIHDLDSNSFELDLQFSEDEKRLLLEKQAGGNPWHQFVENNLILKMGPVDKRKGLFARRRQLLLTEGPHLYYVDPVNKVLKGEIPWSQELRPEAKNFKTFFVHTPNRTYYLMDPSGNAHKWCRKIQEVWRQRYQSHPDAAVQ

[2] = biological target: T2, Serine/threonine-protein kinase PLK4 (Homo sapiens, UniProt O00444);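 note: PLK4 measured as one member of a kinome-wide kinase profiling panel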
T2 sequence (O00444 whole entry): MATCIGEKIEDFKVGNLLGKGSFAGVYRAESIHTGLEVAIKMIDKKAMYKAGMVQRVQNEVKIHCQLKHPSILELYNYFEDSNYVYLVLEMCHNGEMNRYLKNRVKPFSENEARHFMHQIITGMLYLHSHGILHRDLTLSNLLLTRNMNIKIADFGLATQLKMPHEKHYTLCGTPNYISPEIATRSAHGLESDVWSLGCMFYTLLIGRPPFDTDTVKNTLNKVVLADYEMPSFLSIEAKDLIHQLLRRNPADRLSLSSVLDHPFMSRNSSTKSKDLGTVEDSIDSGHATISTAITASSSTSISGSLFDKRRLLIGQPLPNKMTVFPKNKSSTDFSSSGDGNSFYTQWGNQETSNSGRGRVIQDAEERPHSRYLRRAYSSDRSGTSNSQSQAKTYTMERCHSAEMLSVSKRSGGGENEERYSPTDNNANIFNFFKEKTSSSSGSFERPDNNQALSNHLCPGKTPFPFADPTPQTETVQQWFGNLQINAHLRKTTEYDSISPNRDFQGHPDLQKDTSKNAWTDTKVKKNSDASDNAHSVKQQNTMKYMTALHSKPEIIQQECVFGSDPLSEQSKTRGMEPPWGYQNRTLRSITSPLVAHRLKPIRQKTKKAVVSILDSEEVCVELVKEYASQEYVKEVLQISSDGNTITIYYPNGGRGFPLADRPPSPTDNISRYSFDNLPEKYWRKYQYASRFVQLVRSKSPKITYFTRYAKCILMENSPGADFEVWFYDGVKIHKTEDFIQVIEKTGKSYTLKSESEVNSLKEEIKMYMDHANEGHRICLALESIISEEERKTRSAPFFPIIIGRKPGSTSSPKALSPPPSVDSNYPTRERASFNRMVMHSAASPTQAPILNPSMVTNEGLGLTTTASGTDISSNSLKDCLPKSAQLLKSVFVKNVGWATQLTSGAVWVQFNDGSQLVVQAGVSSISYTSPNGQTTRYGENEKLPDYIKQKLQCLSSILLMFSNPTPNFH

[3] = biological target: cAMP-dependent protein kinase catalytic subunit alpha (Homo sapiens, UniProt P17612)
[4] = biological target: T3, Tyrosine-protein kinase receptor TYRO3 (Homo sapiens, UniProt Q06418);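 note: TYRO3 value obtained as one member of a kinome-wide profiling panel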
T3 sequence (Q06418 whole entry): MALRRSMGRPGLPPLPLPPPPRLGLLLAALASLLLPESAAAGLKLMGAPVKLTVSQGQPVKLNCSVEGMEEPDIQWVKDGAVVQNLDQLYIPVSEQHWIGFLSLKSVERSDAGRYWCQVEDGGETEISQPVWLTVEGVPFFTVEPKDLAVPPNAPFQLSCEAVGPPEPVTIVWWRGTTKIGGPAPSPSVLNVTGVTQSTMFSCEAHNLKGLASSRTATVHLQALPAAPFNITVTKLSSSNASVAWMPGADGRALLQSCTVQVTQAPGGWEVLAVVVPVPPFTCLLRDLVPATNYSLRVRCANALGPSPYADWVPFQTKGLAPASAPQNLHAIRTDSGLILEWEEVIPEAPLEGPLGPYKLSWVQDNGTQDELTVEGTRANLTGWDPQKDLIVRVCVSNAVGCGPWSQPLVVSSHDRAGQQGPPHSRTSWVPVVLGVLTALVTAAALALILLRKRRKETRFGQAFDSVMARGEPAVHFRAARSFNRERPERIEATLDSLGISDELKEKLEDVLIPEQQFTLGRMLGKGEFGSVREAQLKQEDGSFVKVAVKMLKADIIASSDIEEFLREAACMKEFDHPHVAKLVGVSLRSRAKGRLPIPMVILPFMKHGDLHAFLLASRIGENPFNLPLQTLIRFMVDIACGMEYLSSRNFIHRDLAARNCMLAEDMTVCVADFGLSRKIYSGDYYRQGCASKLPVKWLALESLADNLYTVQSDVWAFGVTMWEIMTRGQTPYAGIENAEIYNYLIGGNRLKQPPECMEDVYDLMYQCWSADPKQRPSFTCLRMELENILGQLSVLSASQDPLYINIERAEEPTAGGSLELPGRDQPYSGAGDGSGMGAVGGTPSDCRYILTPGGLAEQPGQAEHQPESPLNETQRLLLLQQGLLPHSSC

[5] = biological target: Non-receptor tyrosine-protein kinase TYK2 (Homo sapiens, UniProt P29597)
Sequence of Non-receptor tyrosine-protein kinase TYK2 (P29597 whole entry): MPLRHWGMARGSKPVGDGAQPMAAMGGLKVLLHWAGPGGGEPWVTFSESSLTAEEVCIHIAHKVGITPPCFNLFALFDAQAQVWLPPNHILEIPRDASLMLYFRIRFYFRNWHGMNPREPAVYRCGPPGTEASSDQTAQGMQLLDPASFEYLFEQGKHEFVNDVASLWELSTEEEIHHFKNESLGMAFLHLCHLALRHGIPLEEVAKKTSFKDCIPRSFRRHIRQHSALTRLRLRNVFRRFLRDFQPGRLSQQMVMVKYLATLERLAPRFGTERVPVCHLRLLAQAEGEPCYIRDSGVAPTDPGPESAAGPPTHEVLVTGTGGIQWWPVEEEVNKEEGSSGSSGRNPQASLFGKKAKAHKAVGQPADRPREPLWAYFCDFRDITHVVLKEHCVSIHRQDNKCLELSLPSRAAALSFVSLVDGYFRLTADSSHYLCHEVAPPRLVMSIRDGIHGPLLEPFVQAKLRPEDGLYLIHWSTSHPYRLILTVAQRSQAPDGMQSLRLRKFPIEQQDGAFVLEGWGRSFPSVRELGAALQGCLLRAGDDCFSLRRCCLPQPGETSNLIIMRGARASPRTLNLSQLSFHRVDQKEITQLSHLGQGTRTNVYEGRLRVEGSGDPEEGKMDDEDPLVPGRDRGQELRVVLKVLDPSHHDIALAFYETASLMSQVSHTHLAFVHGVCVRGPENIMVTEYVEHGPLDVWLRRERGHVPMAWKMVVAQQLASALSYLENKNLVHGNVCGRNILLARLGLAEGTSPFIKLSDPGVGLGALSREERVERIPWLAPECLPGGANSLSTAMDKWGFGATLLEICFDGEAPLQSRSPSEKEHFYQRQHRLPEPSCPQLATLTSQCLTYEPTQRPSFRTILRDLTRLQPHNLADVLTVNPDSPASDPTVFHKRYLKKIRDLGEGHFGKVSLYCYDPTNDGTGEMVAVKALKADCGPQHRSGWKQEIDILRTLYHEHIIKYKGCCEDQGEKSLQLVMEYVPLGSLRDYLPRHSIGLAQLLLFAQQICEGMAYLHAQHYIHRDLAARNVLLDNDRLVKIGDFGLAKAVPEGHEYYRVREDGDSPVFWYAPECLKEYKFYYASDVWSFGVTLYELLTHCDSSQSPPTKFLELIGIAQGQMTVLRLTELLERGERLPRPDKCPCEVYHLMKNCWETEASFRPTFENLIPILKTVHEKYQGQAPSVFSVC

[6] = biological target: Calcium/calmodulin-dependent protein kinase type 1 (Homo sapiens, UniProt Q14012)
Sequence of Calcium/calmodulin-dependent protein kinase type 1 (Q14012 whole entry): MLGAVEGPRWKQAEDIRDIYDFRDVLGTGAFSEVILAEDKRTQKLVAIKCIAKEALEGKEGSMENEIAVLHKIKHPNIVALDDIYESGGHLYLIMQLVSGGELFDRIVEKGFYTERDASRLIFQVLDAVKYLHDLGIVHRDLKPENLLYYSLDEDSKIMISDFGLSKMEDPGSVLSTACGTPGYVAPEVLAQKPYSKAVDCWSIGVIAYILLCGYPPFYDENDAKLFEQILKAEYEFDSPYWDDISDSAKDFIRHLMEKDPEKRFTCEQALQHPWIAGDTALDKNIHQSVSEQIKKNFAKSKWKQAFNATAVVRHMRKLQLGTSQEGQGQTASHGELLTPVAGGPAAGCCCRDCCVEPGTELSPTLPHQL

[7] = biological target: Dual specificity tyrosine-phosphorylation-regulated kinase 1A (Homo sapiens, UniProt Q13627);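 note: measured against DYRK1A as one member of a broad kinome profiling panel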
[8] = biological target: MAP/microtubule affinity-regulating kinase 3 (Homo sapiens, UniProt P27448);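 note: MARK3 affinity measured as one member of a kinome panel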
Sequence of MAP/microtubule affinity-regulating kinase 3 (P27448 whole entry): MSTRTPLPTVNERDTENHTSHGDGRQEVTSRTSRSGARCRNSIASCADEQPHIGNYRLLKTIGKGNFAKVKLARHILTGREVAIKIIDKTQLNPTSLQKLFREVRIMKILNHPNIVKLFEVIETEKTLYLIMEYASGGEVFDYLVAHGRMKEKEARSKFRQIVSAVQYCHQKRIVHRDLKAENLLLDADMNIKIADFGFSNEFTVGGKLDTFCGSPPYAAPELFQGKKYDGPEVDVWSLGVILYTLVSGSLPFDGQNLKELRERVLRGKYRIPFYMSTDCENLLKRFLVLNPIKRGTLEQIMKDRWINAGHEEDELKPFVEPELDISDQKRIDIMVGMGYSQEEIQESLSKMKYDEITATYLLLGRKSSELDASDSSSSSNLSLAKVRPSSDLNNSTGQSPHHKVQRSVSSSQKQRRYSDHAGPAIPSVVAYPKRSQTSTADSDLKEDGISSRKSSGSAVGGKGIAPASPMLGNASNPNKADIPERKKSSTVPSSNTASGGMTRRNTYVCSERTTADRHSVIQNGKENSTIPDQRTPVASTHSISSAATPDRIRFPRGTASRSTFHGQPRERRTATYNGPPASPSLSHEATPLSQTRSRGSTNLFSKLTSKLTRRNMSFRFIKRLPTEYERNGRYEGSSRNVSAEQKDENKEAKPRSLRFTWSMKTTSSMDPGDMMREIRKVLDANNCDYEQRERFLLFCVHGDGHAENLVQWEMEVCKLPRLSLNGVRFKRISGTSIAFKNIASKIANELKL

Aurora kinase B = Aurora kinase B (Homo sapiens, UniProt Q96GD4)
Sequence of Aurora kinase B (Q96GD4 whole entry, canonical isoform): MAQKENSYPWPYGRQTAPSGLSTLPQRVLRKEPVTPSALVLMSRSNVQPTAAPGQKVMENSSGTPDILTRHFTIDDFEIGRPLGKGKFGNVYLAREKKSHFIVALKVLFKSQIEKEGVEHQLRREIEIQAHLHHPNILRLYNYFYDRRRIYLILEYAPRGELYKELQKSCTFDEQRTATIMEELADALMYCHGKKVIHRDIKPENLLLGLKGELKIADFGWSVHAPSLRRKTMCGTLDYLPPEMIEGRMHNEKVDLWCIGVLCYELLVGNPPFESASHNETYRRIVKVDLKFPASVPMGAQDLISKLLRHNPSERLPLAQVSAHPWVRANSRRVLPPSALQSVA

[9] = biological target: Casein kinase I isoform delta (Homo sapiens, UniProt P48730);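 note: measured as one member (CSNK1D) of a kinome panel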
Sequence of Casein kinase I isoform delta (P48730 whole entry, canonical isoform): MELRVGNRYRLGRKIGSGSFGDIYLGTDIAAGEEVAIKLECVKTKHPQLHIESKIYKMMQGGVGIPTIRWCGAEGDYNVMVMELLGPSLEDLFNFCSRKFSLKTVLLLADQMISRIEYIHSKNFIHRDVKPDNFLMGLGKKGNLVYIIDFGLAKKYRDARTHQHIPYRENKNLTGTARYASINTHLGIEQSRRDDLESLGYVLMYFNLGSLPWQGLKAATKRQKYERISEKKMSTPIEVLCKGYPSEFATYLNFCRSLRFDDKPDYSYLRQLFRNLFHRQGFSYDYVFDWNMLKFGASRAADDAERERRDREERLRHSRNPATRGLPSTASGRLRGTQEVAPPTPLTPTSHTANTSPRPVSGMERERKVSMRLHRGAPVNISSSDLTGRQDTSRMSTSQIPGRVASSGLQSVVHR

In the case of `NC(=O)c1cc(-c2ccnc(N)n2)[nH]c1-c1ccc(Cl)cc1Cl`, the Ki [1] is reported as > 3.98 µM (inactive), the Ki [2] is reported as 501 nM (active) and the pKi [2] is reported as 6.3. For the same compound, the Ki [3] was 398 nM (active), the pKi [3] was 6.4 and the Ki [4] was > 2 µM (inactive). The Ki [5] was 0.794 µM (active), the Ki [6] was > 3.98 µM (inactive) and the Ki [7] was 0.794 nM (active). For the same compound, the pKi [7] was 9.1, the Ki [8] was 501 nM (active) and the pKi [8] was 6.3. The Ki (Aurora kinase B) was 631 nM (active), the pKi (Aurora kinase B) was 6.2 and the Ki [9] was 15.8 nM (active). The pKi [9] was 7.8.

In the case of `NC(COc1cncc(-c2ccc3c(c2)C(=Cc2ccco2)C(=O)N3)c1)Cc1c[nH]c2ccccc12` (stereo unspecified), the Ki [1] is reported as 0.0501 µM (active), the Ki [2] is reported as 200 nM (active) and the Ki [3] is reported as 12.6 nM (active). The Ki [4] was > 2 µM (inactive), the Ki [5] was > 2 µM (inactive) and the Ki [6] was 1.26 µM (active). For the same compound, the Ki [7] was 2.51 nM (active), the Ki [8] was 39.8 nM (active) and the Ki (Aurora kinase B) was 200 nM (active). The Ki [9] was 398 nM (active).

With `Cc1ccc(-n2nc(C(C)(C)C)cc2NC(=O)Nc2ccc(OCCN3CCOCC3)c3ccccc23)cc1` [DORAMAPIMOD] the Ki [1] was > 3.98 µM (inactive), the Ki [2] was > 3980 nM (inactive) and the Ki [3] was > 2000 nM (inactive). The Ki [4] was 2 µM (active), the Ki [5] was > 2 µM (inactive) and the Ki [6] was > 7.94 µM (inactive). For the same compound, the Ki [7] was > 2000 nM (inactive), the Ki [8] was > 5010 nM (inactive) and the Ki (Aurora kinase B) was > 5010 nM (inactive). The Ki [9] was > 7940 nM (inactive).
